The text below walks through data of US20130243801A1, “EPITOPE THERAPY FOR INFECTIOUS DISEASES” (NEW YORK UNIVERSITY, priority 2010, published 2013).

Where no end group is shown, it is not given here.

The conditions of data set [1]: mouse, in vivo; for signs of toxicity: iv.
The target in data set [2] is complex of peptide 25 (aa 240-254) of M. tuberculosis Ag85B and the mouse MHC II allele I-A^b (Mycobacterium tuberculosis; mouse) (UniProt P14434). Briefly: cell-based or functional assay.

For the substance “FQDAYNAAGGHNAVF [peptide 25, FQDAYNAAGGHNAVF]”, in data set [1], the morbidity or mortality result is given as “no morbidity or mortality was observed” and the signs of toxicity result is “Neither group of mice displayed any signs of toxicity”.

Take “ISQAVHAAHAEINEAGR [OVA peptide, ISQAVHAAHAEINEAGR, reference compound]”: in data set [1], the signs of toxicity result is on record as “Neither group of mice displayed any signs of toxicity”.

In data set [2], “P25TCR transgenic T-cell antigen receptor (on P25TCRTh1 CD4+ Th1 effector cells from P25TCR-Tg mice)” registered a frequency of IFN-γ+ P25TCRTh1 cells in the lungs of H37Rv-infected mice six hours after intravenous peptide 25 of 20 to 50%.
